Laboratory results published in US20250040548A1, “Herbicidal compositions comprising saflufenacil” (BASF SF, priority 2023, published 2025).

Assays:
COMBE = assay: Post-emergence application in greenhouse trials; assay type: in vivo, Commelina benghalensis; settings: growth stage 21, 1% MSO
Description: (§1) In the examples below, using the method of S. R. Colby (1967) “Calculating synergistic and antagonistic responses of herbicide combinations”, Weeds 15, p. 22ff., the value E, which is expected if the activity of the individual active compounds is only additive, was calculated.
(§2) [formula] • where • X=percent activity using active herbicide A at an application rate a; • Y=percent activity using active saflufenacil at an application rate b; • E=expected activity (in %) by A+B at application rates a+b.
(§3) If the value found experimentally is higher than the value E calculated according to Colby, a synergistic effect is present.
(§4) The culture containers used were plastic pots containing loamy sand with approximately 3.0% of humus as substrate. The seeds of the test plants were sown separately for each species.
(§5) For the post-emergence treatment, the test plants were grown to a plant height of from 3 to 15 cm, depending on the plant habit, and only then treated with the active compounds which had been suspended or emulsified in water. To this end, the test plants were either sown directly, and grown in the same containers, or they were first grown separately as seedlings and transplanted into the test containers a few days prior to treatment.
(§6) Depending on the species, the plants were kept at 10-25° C. and 20-35° C., respectively.
(§7) The test period extended over 2 to 4 weeks. During this time, the plants were tended and their response to the individual treatments was evaluated.
(§8) Evaluation was carried out using a scale from 0 to 100. 100 means no emergence of the plants, or complete destruction of at least the above-ground parts, and 0 means no damage or normal course of growth. A good herbicidal activity is given at values of at least 70, and very good herbicidal activity is given at values of at least 85.
(§9) Unless indicated otherwise, herbicide A and saflufenacil were formulated (50 g/I) and applied with addition of 1% MSO (methylated seed oil) as adjuvant. In the greenhouse trials, the solvent used was water (200 I/ha).

SETFA = assay: Post-emergence application in greenhouse trials; assay type: in vivo, Setaria faberi; settings: 7 DAT, growth stage 13, 1% MSO
Description: as §1, §2, §3, §4, §5, §6, §7, §8, §9

ERICA = assay: Post-emergence application in greenhouse trials; assay type: in vivo, Erigeron canadensis; settings: 21 DAT, growth stage 31, saflufenacil as commercial 342 g/l SC formulation
Description: as §1, §2, §3, §4, §5, §6, §7, §8, §9

AVEST = assay: Post-emergence application in field trials (Examples 2 and 3); assay type: in vivo, Avena stirilis; settings: 14 DAT, 1% v/ MSO
Description: as §1, §2, §3
(§10) On field test sites, natural weed infestation or seeded weeds were treated post-emergence of the weeds.
(§11) For the post emergence treatment, the weedy plants were treated as indicated below. The herbicidal compositions were, together with the adjuvant(s) as indicated, suspended or emulsified in water (200 l/ha unless indicated otherwise) as distribution medium and sprayed with commercial flat fan nozzles.
(§12) In the following experiments, the herbicidal activity for the individual herbicidal compositions (solo and mixture applications) was assessed the indicated days after treatment (DAT). The assessments for the damage on undesired weeds caused by the composition was carried out using a scale from 0 to 100%, compared to the untreated control plants. […]

LAMAN = assay: as above; assay type: in vivo, Lamium amplexicaule; settings: height 3-18 cm, 21 DAT, 1% v/v MSO and 1% AMS (ammonium sulfate)
Description: as §1, §2, §3, §10, §11, §12

SETIT = assay: as above; assay type: in vivo, Setaria italica; settings: height 21-31 cm, 22 DAT, 1% v/v MSO
Description: as §1, §2, §3, §10, §11, §12

CCOC(=O)COc1ccccc1Oc1nc(-n2c(=O)cc(C(F)(F)F)n(C)c2=O)c(F)cc1Cl [A-1, ethyl 2-[2-[[3-chloro-5-fluoro-6-[3-methyl-2,6-dioxo-4-(trifluoromethyl)pyrimidin-1-yl]-2-pyridyl]oxy]phenoxy]acetate]
% Herbicidal activity (COMBE; A-1 0.2 g ai/ha, 6 DAT): 15% | % Herbicidal activity (COMBE; A-1 0.2 g ai/ha, 20 DAT): 40% | % Herbicidal activity (COMBE; A-1 0.4 g ai/ha, 20 DAT): 75% | % Herbicidal activity (SETFA; A-1 0.2 g ai/ha): 35% | % Herbicidal activity (SETFA; A-1 0.3 g ai/ha): 55% | % Herbicidal activity (SETFA; A-1 0.4 g ai/ha): 65% | % Herbicidal activity (SETFA; A-1 0.5 g ai/ha): 80% | % Herbicidal activity (ERICA; A-1 1.56 g ai/ha): 10% | % Herbicidal activity (ERICA; A-1 3.12 g ai/ha): 10% | % Herbicidal activity (ERICA; A-1 6.25 g ai/ha): 30% | % Herbicidal activity (AVEST; growth stage 12-22, A-1 solo 12.5 g ai/ha): 95% | % Herbicidal activity (LAMAN; A-1 solo 25 g ai/ha): 93% | % Herbicidal activity (SETIT; A-1 solo 40 g ai/ha): 83%

CC(C)N(C)S(=O)(=O)NC(=O)c1cc(-n2c(=O)cc(C(F)(F)F)n(C)c2=O)c(F)cc1Cl [B-1, saflufenacil]
% Herbicidal activity (COMBE; B-1 0.2 g ai/ha, 6 DAT): 15% | % Herbicidal activity (COMBE; B-1 0.2 g ai/ha, 20 DAT): 5% | % Herbicidal activity (COMBE; B-1 0.8 g ai/ha, 20 DAT): 75% | % Herbicidal activity (SETFA; B-1 0.5 g ai/ha): 10% | % Herbicidal activity (SETFA; B-1 0.8 g ai/ha): 15% | % Herbicidal activity (SETFA; B-1 0.9 g ai/ha): 15% | % Herbicidal activity (SETFA; B-1 1.1 g ai/ha): 35% | % Herbicidal activity (ERICA; B-1 3.12 g ai/ha): 30% | % Herbicidal activity (AVEST; growth stage 12-22, B-1 solo 25 g ai/ha): 0% | % Herbicidal activity (LAMAN; B-1 solo 25 g ai/ha): 40% | % Herbicidal activity (SETIT; B-1 solo 25 g ai/ha): 23%
